From US10519117B2, “Crystal forms of 6-bromo-3-hydroxy-2-pyrazinecarboxamide” (FUJIFILM Toyama Chemical Co., Ltd., priority 2015, dated 2019)

Key:
Format in all cases: physicochemical
[1] = Storage stability of crystals of compound D at 60° C. and 75% relative humidity (Test Example 2), crystal form by infrared absorption spectrum; settings: for change of crystal form on storage (summary in words) / stability on storage (summary in words): up to 8 weeks
Protocol: Type-A crystals, type-B crystals or type-C crystals of compound D were packed in double plastic bags and stored under conditions of 60° C. temperature and 75% relative humidity. Sampling was performed over time, and the crystal form was determined by infrared absorption spectrum measurement.

[2] = Standing of crystals at room temperature
Source text: It is difficult to store type-A crystals of compound D for a long period.
Type-C crystals of compound D can be produced by, for example, leaving type-A crystals of compound D to stand at room temperature.
The standing time may be one week to one year.

[3] = Solubility in organic solvents
Source text: Therefore, compound C is isolated according to any method such as neutralization crystallization in an aqueous solvent.

change of crystal form on storage (summary in words) ([1]; 60° C., 75% relative humidity) | crystal form after storage ([1]; double plastic bags, 60° C., 75% relative humidity, 8 weeks) | change of crystal form when left to stand [2] | storage stability (general statement) [1] | stability on storage (summary in words) ([1]; 60° C., 75% relative humidity) | solubility in various organic solvents [3] | SMILES
changed to type-C crystals | A + C(major) | converted into type-C crystals |  |  |  | NC(=O)c1nc(Br)cnc1O [Type-A crystals, 6-bromo-3-hydroxy-2-pyrazinecarboxamide]
not changed |  |  | excellent in storage stability | stable |  | NC(=O)c1nc(Br)cnc1O [Type-B crystals, 6-bromo-3-hydroxy-2-pyrazinecarboxamide]
not changed |  |  |  | stable |  | NC(=O)c1nc(Br)cnc1O [Type-C crystals, 6-bromo-3-hydroxy-2-pyrazinecarboxamide]
 |  |  |  |  | hardly soluble | NC(=O)c1nccnc1O [compound C, 3-hydroxy-2-pyrazinecarboxamide]
